Tested on: yeast genes (expressed mRNA)
Test: DNA chip measurement of expressed mRNA of yeast genes after culture with a toxic chemical substance
Type: cell-based, Saccharomyces cerevisiae S288C
Description: Yeast (Saccharomyces cerevisiae S288C (a SUC2mal mel gap2 CUP1)) were cultured at 25° C. on YPD medium (yeast extract 1%, polypeptone 2%, glucose 2%). One of toxic chemical substances was added to the cell at logarithmic growth phase, and the cell was further cultured for two hours. Cell was cultured without any chemical substance in the same condition, and was used as a control. Concentrations of the chemical substances were defined to inhibit the growth of the yeast but not lead to death.
After the completion of cultivation, the culture was centrifuged to collect the cells. To the cells, sodium acetate buffer (50 mM sodium acetate, 10 mM EDTA, 1% SDS) was added, and the mixture was shaken at 65° C. for five minutes, followed by returning to room temperature, and obtaining the supernatant, which procedure was repeated two times. To the supernatant, ½ amount of a solution of phenol/chloroform (1:1) was added, and the mixture was centrifuged to give a supernatant, an equal amount of chloroform was added, and the mixture was centrifuged to give a supernatant. To the supernatant, an equal amount of isopropanol containing 0.3 M sodium acetate was added, and the mixture was allowed to stand at room temperature for 30 minutes, after which the mixture was centrifuged to give sediment of the whole RNAs. Seventy % ethanol was added to the sediment, and the mixture was again centrifuged to give sediment, which was then dried and dissolved in water. mRNA was isolated from the whole RNAs as followings. In view of the fact that a poly A chain is attached to the 3′ terminus of mRNA, a polynucleotide having a poly T structure which was immobilized on the surface of latex beads was used to trap the mRNA, and then the mRNA was washed and eluted with spine column (Oligotex-dT30<Super>mRNA Purification Kit, Takara). Reverse transcription of the mRNA was conducted with a reverse transcriptase (Super Script II Reverse Transcriptase; catalogue No. 18064-014, GibcoBRL) using fluorescence-labeled nucleotides to give cDNAs that were introduced with Cy3-dUTP or Cy5-dUTP during the reverse transcription.
The labeled cDNAs were dissolved in TE buffer (10 mM Tris-HCl/1 mM EDTA, pH 8.0), and the solution was dropped on the DNA chip containing the whole genes of yeast (DNA Chip Research Inc. Japan) so that the cDNAs were hybridized on the DNA chip at 65° C. for over 12 hours. The fluoresces intensity of the DNA chip was read with a scanner, and the ratio relative to the fluorescence intensity resulting from the absence of chemical substance was estimated as the following, which is shown in Tables 1 to 9.
In the Tables, “Intensity” indicated in the rightmost column is a value of the level of expressed mRNA of each gene in control cells as divided by the average level of the expressions of the whole genes. A gene of which mRNA level is lower in control, and is higher in cases of addition of chemical substance, is especially useful in the detection of toxic substances.
Here, when a ratio of an amount of mRNA expressed in the presence of the chemical substance to an amount of mRNA expressed in the absence of the chemical substance is two or more, then it is considered significant.

N#Cc1c(Cl)c(Cl)c(Cl)c(C#N)c1Cl [(9), 2,4,5,6-Tetrachloro-1,3-benzenedicarbonitrile]
The level of expressed mRNA in the presence of chemical substance/The level of expressed mRNA in the absence of chemical substance (yeast gene YMR316W, cultured two hours with substance): 2.1 | The level of expressed mRNA in the presence of chemical substance/The level of expressed mRNA in the absence of chemical substance (yeast gene YMR322C, cultured two hours with substance): 21.3 | The level of expressed mRNA in the presence of chemical substance/The level of expressed mRNA in the absence of chemical substance (yeast gene YNL044W, cultured two hours with substance): 0.8 | The level of expressed mRNA in the presence of chemical substance/The level of expressed mRNA in the absence of chemical substance (yeast gene YNL074C, cultured two hours with substance): 1.5 | The level of expressed mRNA in the presence of chemical substance/The level of expressed mRNA in the absence of chemical substance (yeast gene YNL092W, cultured two hours with substance): 2.3 | The level of expressed mRNA in the presence of chemical substance/The level of expressed mRNA in the absence of chemical substance (yeast gene YNL115C, cultured two hours with substance): 2.6 | The level of expressed mRNA in the presence of chemical substance/The level of expressed mRNA in the absence of chemical substance (yeast gene YNL117W, cultured two hours with the chemical substance): 12.8 | The level of expressed mRNA in the presence of chemical substance/The level of expressed mRNA in the absence of chemical substance (yeast gene YNL156C, cultured two hours with substance): 2.4 | The level of expressed mRNA in the presence of chemical substance/The level of expressed mRNA in the absence of chemical substance (yeast gene YNL190W, cultured two hours with substance): 1.1 | The level of expressed mRNA in the presence of chemical substance/The level of expressed mRNA in the absence of chemical substance (yeast gene YNL208W, cultured two hours with substance): 2.3 | The level of expressed mRNA in the presence of chemical substance/The level of expressed mRNA in the absence of chemical substance (yeast gene YNL234W, cultured two hours with substance): 2.6 | The level of expressed mRNA in the presence of chemical substance/The level of expressed mRNA in the absence of chemical substance (yeast gene YNL281W, cultured two hours with substance): 2.8 | The level of expressed mRNA in the presence of chemical substance/The level of expressed mRNA in the absence of chemical substance (yeast gene YNL305C, cultured two hours with substance): 2.9 | The level of expressed mRNA in the presence of chemical substance/The level of expressed mRNA in the absence of chemical substance (yeast gene YNL331C): 42.6 | The level of expressed mRNA in the presence of chemical substance/The level of expressed mRNA in the absence of chemical substance (yeast gene YNL331C, cultured for two hours with substance): 42.6 | The level of expressed mRNA in the presence of chemical substance/The level of expressed mRNA in the absence of chemical substance (yeast gene YNR068C, cultured two hours with substance): 6.7 | The level of expressed mRNA in the presence of chemical substance/The level of expressed mRNA in the absence of chemical substance (yeast gene YOL030W, cultured two hours with the chemical substance): 1.2 | The level of expressed mRNA in the presence of chemical substance/The level of expressed mRNA in the absence of chemical substance (yeast gene YOL032W, cultured two hours with substance): 4.5 | The level of expressed mRNA in the presence of chemical substance/The level of expressed mRNA in the absence of chemical substance (yeast gene YOL036W, cultured two hours with substance): 3.1 | The level of expressed mRNA in the presence of chemical substance/The level of expressed mRNA in the absence of chemical substance (yeast gene YOL047C, cultured two hours with substance): 0.6 | The level of expressed mRNA in the presence of chemical substance/The level of expressed mRNA in the absence of chemical substance (yeast gene YOL071W, cultured two hours with substance): 4.4 | The level of expressed mRNA in the presence of chemical substance/The level of expressed mRNA in the absence of chemical substance (yeast gene YOL082W, cultured two hours with substance): 3.4 | The level of expressed mRNA in the presence of chemical substance/The level of expressed mRNA in the absence of chemical substance (yeast gene YOL083W, cultured two hours with substance): 2.7 | The level of expressed mRNA in the presence of chemical substance/The level of expressed mRNA in the absence of chemical substance (yeast gene YOL117W, cultured two hours with substance): 1.3 | The level of expressed mRNA in the presence of chemical substance/The level of expressed mRNA in the absence of chemical substance (yeast gene YOL131W, cultured two hours with substance): 8.4 | The level of expressed mRNA in the presence of chemical substance/The level of expressed mRNA in the absence of chemical substance (yeast gene YOL150C, cultured two hours with substance): 10.8 | The level of expressed mRNA in the presence of chemical substance/The level of expressed mRNA in the absence of chemical substance (yeast gene YOL162W, cultured two hours with substance): 12.0 | The level of expressed mRNA in the presence of chemical substance/The level of expressed mRNA in the absence of chemical substance (yeast gene YOL165C): 46.9 | The level of expressed mRNA in the presence of chemical substance/The level of expressed mRNA in the absence of chemical substance (yeast gene YOL165C, cultured for two hours with substance): 46.9 | The level of expressed mRNA in the presence of chemical substance/The level of expressed mRNA in the absence of chemical substance (yeast gene YOR019W, cultured two hours with substance): 3.5 | The level of expressed mRNA in the presence of chemical substance/The level of expressed mRNA in the absence of chemical substance (yeast gene YOR197W, cultured two hours with substance): 0.8 | The level of expressed mRNA in the presence of chemical substance/The level of expressed mRNA in the absence of chemical substance (yeast gene YOR215C, cultured two hours with substance): 2.1 | The level of expressed mRNA in the presence of chemical substance/The level of expressed mRNA in the absence of chemical substance (yeast gene YOR228C, cultured two hours with substance): 1.4 | The level of expressed mRNA in the presence of chemical substance/The level of expressed mRNA in the absence of chemical substance (yeast gene YOR248W, cultured two hours with substance): 0.1 | The level of expressed mRNA in the presence of chemical substance/The level of expressed mRNA in the absence of chemical substance (yeast gene YOR382W, cultured two hours with substance): 1.1 | The level of expressed mRNA in the presence of chemical substance/The level of expressed mRNA in the absence of chemical substance (yeast gene YOR391C, cultured two hours with substance): 18.8 | The level of expressed mRNA in the presence of chemical substance/The level of expressed mRNA in the absence of chemical substance (yeast gene YPL052W, cultured two hours with substance): 2.0 | The level of expressed mRNA in the presence of chemical substance/The level of expressed mRNA in the absence of chemical substance (yeast gene YPL087W, cultured two hours with substance): 1.0 | The level of expressed mRNA in the presence of chemical substance/The level of expressed mRNA in the absence of chemical substance (yeast gene YPL194W, DNA repair protein genes, cultured two hours with substance): 9.6 | The level of expressed mRNA in the presence of chemical substance/The level of expressed mRNA in the absence of chemical substance (yeast gene YPL196W, cultured two hours with substance): 10.9 | The level of expressed mRNA in the presence of chemical substance/The level of expressed mRNA in the absence of chemical substance (yeast gene YPL206C, cultured two hours with substance): 1.7 | The level of expressed mRNA in the presence of chemical substance/The level of expressed mRNA in the absence of chemical substance (yeast gene YPL222W, cultured two hours with substance): 7.4 | The level of expressed mRNA in the presence of chemical substance/The level of expressed mRNA in the absence of chemical substance (yeast gene YPL223C (stress protein genes)): 29.4 | The level of expressed mRNA in the presence of chemical substance/The level of expressed mRNA in the absence of chemical substance (yeast gene YPL272C, cultured two hours with the chemical substance): 1.2 | The level of expressed mRNA in the presence of chemical substance/The level of expressed mRNA in the absence of chemical substance (yeast gene YPL280W, cultured two hours with substance): 49.8 | The level of expressed mRNA in the presence of chemical substance/The level of expressed mRNA in the absence of chemical substance (yeast gene YPR023C, cultured two hours with substance): 4.4 | The level of expressed mRNA in the presence of chemical substance/The level of expressed mRNA in the absence of chemical substance (yeast gene YPR079W, cultured two hours with substance): 1.7 | The level of expressed mRNA in the presence of chemical substance/The level of expressed mRNA in the absence of chemical substance (yeast gene YPR150W, cultured two hours with the chemical substance): 1.2 | The level of expressed mRNA in the presence of chemical substance/The level of expressed mRNA in the absence of chemical substance (yeast gene YPR151C, cultured two hours with substance): 3.0 | The level of expressed mRNA in the presence of chemical substance/The level of expressed mRNA in the absence of chemical substance (yeast gene YPR167C): 76.6

From patent US20100041089A1, “IMPROVED METHOD FOR DETECTING CHEMICAL […]” (priority 2006, published 2010)
